How the values were obtained:
U-2 OS [1] = assay: cell painting activity score (Mahalanobis distance from DMSO wells); higher = stronger morphological phenotype; conditions: 24 h
Protocol: (§1)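 Cell painting in U-2 OS cells (384-well, about 1,500 cells per well), compound exposure 24 h, usually six 2-fold concentrations from 20 to 0.625 uM (some compounds higher or lower). Relative cell count is the cell number per well relative to DMSO wells. Activity score is the Mahalanobis distance of the morphological profile from DMSO control wells. Mean of four technical replicate plates.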

U-2 OS [2] = assay: relative cell count vs DMSO (cell painting) (fraction of DMSO control); higher = more cells remaining (less cytotoxic); conditions: 24 h
Protocol: as §1

U-2 OS [3] = assay: AUC of culture confluence over time (live-cell imaging) (AUC (confluence % x time)); higher = more confluent culture (less growth inhibition)
Protocol: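 Live-cell Incucyte imaging of U-2 OS cells in F-12K medium. Compounds were tested mostly at 5, 10 and 20 uM, and cells were imaged every 4 h for up to 60 h. Value is the area under the curve of phase-contrast confluence over time.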

| Compound | cell painting activity score (U-2 OS [1]; 0.625 µM) | cell painting activity score (U-2 OS [1]; 1.25 µM) | cell painting activity score (U-2 OS [1]; 2.5 µM) | cell painting activity score (U-2 OS [1]; 5 µM) | cell painting activity score (U-2 OS [1]; 10 µM) | cell painting activity score (U-2 OS [1]; 20 µM) | relative cell count (U-2 OS [2]; 0.625 µM) | relative cell count (U-2 OS [2]; 1.25 µM) | relative cell count (U-2 OS [2]; 2.5 µM) | relative cell count (U-2 OS [2]; 5 µM) | relative cell count (U-2 OS [2]; 10 µM) | relative cell count (U-2 OS [2]; 20 µM) | AUC of culture confluence over time (U-2 OS [3]; 5 µM) | AUC of culture confluence over time (U-2 OS [3]; 10 µM) | AUC of culture confluence over time (U-2 OS [3]; 20 µM) | cell painting activity score (U-2 OS [1]; 40 µM) | cell painting activity score (U-2 OS [1]; 80 µM) | relative cell count (U-2 OS [2]; 40 µM) | relative cell count (U-2 OS [2]; 80 µM) | AUC of culture confluence over time (U-2 OS [3]; 40 µM) | AUC of culture confluence over time (U-2 OS [3]; 80 µM) |
| --- | --- | --- | --- | --- | --- | --- | --- | --- | --- | --- | --- | --- | --- | --- | --- | --- | --- | --- | --- | --- | --- |
| O=C(O[C@@H]1O[C@@H]2COC(=O)c3cc(O)c(O)c(O)c3-c3c(cc(O)c(O)c3O)C(=O)O[C@H]([C@H]1O)[C@@H]2O)c1cc(O)c(O)c(O)c1 | 4.19 | 3.86 | 4.06 | 3.55 | 4.28 | 4.5 | 1.02 | 1.04 | 1.01 | 1 | 0.979 | 0.978 | 48.7 | 46.2 | 43.4 | – | – | – | – | – | – |
| O=C(c1ccc(/C=C/c2n[nH]c3ccccc23)cc1)N1CCNCC1 | 9.05 | 12 | 17.9 | 19.2 | 18.8 | 18.8 | 1.02 | 0.914 | 0.649 | 0.572 | 0.532 | 0.526 | 28.9 | 32.6 | 26.8 | – | – | – | – | – | – |
| Cc1cnc(CNC(=O)c2c(=O)c3ccc(N4CCCN(C)CC4)nc3n3c2sc2ccccc23)cn1 | 9.34 | 10.9 | 10.3 | 10.4 | 11.4 | 11 | 0.709 | 0.607 | 0.591 | 0.572 | 0.559 | 0.548 | 33.9 | 34.5 | 35 | – | – | – | – | – | – |
| O=C(O)C[C@@H]1C(=O)O[C@H]2[C@@H]3OC(=O)c4cc(O)c(O)c(O)c4-c4c(cc(O)c(O)c4O)C(=O)OC[C@H]2O[C@@H](OC(=O)c2cc(O)c(O)c(O)c2)[C@@H]3OC(=O)c2cc(O)c(O)c3c2[C@H]1[C@H](O)C(=O)O3 | 3.42 | 3.94 | 4.16 | 5.6 | 5.3 | 8.86 | 1.01 | 1 | 1.06 | 1.04 | 1.05 | 1.05 | 45.6 | 45.4 | 41.8 | – | – | – | – | – | – |
| O=C1O[C@H]2[C@@H]3OC(=O)c4cc(O)c(O)c(O)c4-c4c(O)c(O)c5oc(=O)c6c(c(O)c(O)c7oc(=O)c4c5c76)-c4c(cc(O)c(O)c4O)C(=O)OC[C@H]3OC(O)[C@@H]2OC(=O)c2cc(O)c(O)c(O)c2-c2c1cc(O)c(O)c2O (stereo partly drawn) | 5.43 | 7.35 | 6.54 | 7.71 | 7.7 | 12.5 | 1.01 | 1 | 1.04 | 1.02 | 0.968 | 0.808 | 47.1 | 42.3 | 38.4 | – | – | – | – | – | – |
| ClC1=CC=C(C2=CSC(N/N=C3CCCC/3)=N2)C=C1 | 3.41 | 3.02 | 4.44 | 4.27 | 4.6 | 7.83 | 1.01 | 1.04 | 0.973 | 1 | 0.97 | 0.882 | – | – | – | 10 | 11 | 0.758 | 0.766 | 39.7 | 41.8 |
| COc1cc(=O)oc(/C=C/C=C/C=C/C(C)=C/[C@]2(C)O[C@H](C)[C@](C)(O)[C@H]2O)c1C | 4.29 | 4.47 | 6.44 | 11.5 | 12.8 | 12.1 | 0.993 | 0.982 | 0.972 | 0.928 | 0.826 | 0.758 | 34.4 | 30.9 | 27.2 | – | – | – | – | – | – |
| O=C(OC[C@H]1O[C@@H](OC(=O)c2cc(O)c(O)c(OC(=O)c3cc(O)c(O)c(O)c3)c2)[C@H](OC(=O)c2cc(O)c(O)c(OC(=O)c3cc(O)c(O)c(O)c3)c2)[C@@H](OC(=O)c2cc(O)c(O)c(OC(=O)c3cc(O)c(O)c(O)c3)c2)[C@@H]1OC(=O)c1cc(O)c(O)c(OC(=O)c2cc(O)c(O)c(O)c2)c1)c1cc(O)c(O)c(OC(=O)c2cc(O)c(O)c(O)c2)c1 | 4.17 | 4.59 | 6.15 | 5.91 | 6.39 | 8.09 | 1.02 | 1.02 | 1.02 | 0.945 | 0.945 | 0.697 | 48.2 | 48.5 | 27.9 | – | – | – | – | – | – |
| Cl.Nc1ccc(O)c2ccccc12 | 8.19 | 6.08 | 9.4 | 14.3 | 15.3 | 30.8 | 0.931 | 0.895 | 0.888 | 0.75 | 0.623 | 0.09 | 31.2 | 23.5 | 18 | – | – | – | – | – | – |
| O=C1c2ccccc2[Se](=O)N1c1ccccc1 (stereo not drawn) | 5.57 | 10.4 | 15.8 | 17 | 15.8 | 13.8 | 0.985 | 0.943 | 0.991 | 0.954 | 0.805 | 0.111 | 31.5 | 18.8 | 18.2 | – | – | – | – | – | – |
| CCc1c2c(nc3ccc(OC(=O)N4CCC(N5CCCCC5)CC4)cc13)-c1cc3c(c(=O)n1C2)COC(=O)[C@]3(O)CC.Cl | 7.03 | 8.8 | 9.65 | 10.7 | 11 | 11.2 | 0.924 | 0.783 | 0.705 | 0.614 | 0.554 | 0.566 | 31.5 | 25.7 | 22 | – | – | – | – | – | – |
| Nc1nccc2c1ncn2[C@@H]1C=C(CO)[C@@H](O)[C@H]1O | 18.6 | 18.8 | 26.9 | 28 | 26.4 | 26.2 | 0.949 | 0.964 | 0.944 | 0.938 | 0.941 | 0.94 | 36.9 | 32.7 | 34.3 | – | – | – | – | – | – |
| COc1cc([C@@H]2c3cc4c(cc3[C@@H](O[C@@H]3O[C@@H]5CO[C@@H](C)O[C@H]5[C@H](O)[C@H]3O)[C@H]3COC(=O)[C@H]23)OCO4)cc(OC)c1O | 11.9 | 14 | 12.9 | 14.6 | 14.4 | 15.2 | 0.661 | 0.635 | 0.568 | 0.604 | 0.551 | 0.536 | 26.2 | 24.8 | 18.3 | – | – | – | – | – | – |
| CC(C)[C@H]1OC(=O)[C@H](Cc2ccccc2)N(C)C(=O)[C@@H](C(C)C)OC(=O)[C@H](Cc2ccccc2)N(C)C(=O)[C@@H](C(C)C)OC(=O)[C@H](Cc2ccccc2)N(C)C1=O | 3.92 | 4.9 | 9.63 | 14.2 | 15.5 | 34.1 | 0.976 | 0.957 | 0.981 | 0.73 | 0.439 | 0.0218 | 19.7 | 28.9 | 11.6 | – | – | – | – | – | – |
| CC[C@H](C)[C@@H]1NC(=O)CNC(=O)[C@@H]2Cc3c([nH]c4cc(O)ccc34)S(=O)C[C@H](NC(=O)CNC1=O)C(=O)N[C@@H](CC(=O)O)C(=O)N1C[C@H](O)C[C@H]1C(=O)N[C@@H]([C@@H](C)[C@@H](O)CO)C(=O)N2 (stereo partly drawn) | 5.47 | 4.77 | 6.25 | 4.42 | 11.2 | 29.1 | 0.979 | 0.941 | 0.975 | 0.992 | 0.958 | 0.862 | 26.4 | 24.6 | 16.3 | – | – | – | – | – | – |

From the supplement of paper PMC10011410
